Experimental data: patent US8653271B2 (priority 2006, dated 2014)
Values after ≈ are worked out from the molar mass of the structure shown.

Columns and labels:
physchem = assay type: physicochemical; conditions: thermodynamic from solid
Protocol: The solubilities of CB-NTXOL-BUPOH, hydroxybupropion, and 6-β-naltrexol were determined by adding excess quantity of drug to mineral oil or pre-warmed HEPES-buffered Hanks' salt solution pH 7.4 at 32° C. (skin surface temperature), with equilibration while shaking in a water bath at 60 rpm. Weighing 4 mg of each of the drugs and placing them in 1 ml of each of the respective solvents was enough to ensure that there was excess drug in solution. Samples were drawn into a pre-warmed glass syringe, filtered through a syringe filter (Mineral oil: Millex FG-13, Millipore, Billerica, Mass., USA, and buffer: nylon filter, Gelman, East Hills, N.Y., USA), and measured with respect to volume and diluted with an appropriate volume of acetonitrile or buffer. The drug from the buffer samples was immediately extracted by solid phase extraction as described above. Drugs in mineral oil were diluted with a hundred-fold volume of acetonitrile and extraction recoveries were >95% for all the drugs. The sampling procedure was done in triplicate, discarding the first 40% of the initial filtrate. […]. For buffer solubilities, samples were taken after 30 min of sonication (to minimize the hydrolysis of the codrug). No significant difference was found between 30 min sonication solubility measurements and equilibrium solubility measurements taken after 48 h for 6-β-naltrexol.

[1] = human skin, values obtained from Kiptoo et al., cited from earlier work
[2] = Differential scanning calorimetry; assay type: physicochemical
[3] = Plasma hydrolysis of the carbonate codrug; assay type: in vitro ADME, guinea pig; conditions: guinea pig plasma in vitro at 37° C.
Protocol: Guinea pig plasma, which was stored at −20° C., was thawed to room temperature. Known and sub-saturated amounts of the codrug (50 nmol) were added to approximately 2.0 ml of the guinea pig plasma and vortexed. Two-hundred μl aliquots of the spiked plasma were distributed into sealed vials, and incubated at 37° C. Samples were withdrawn at predetermined time intervals; 0, 0.5, 1, 2, 4, 6, 9, 24, 30, and 48 h. 500 μl of ACN was added to each sample to precipitate plasma protein. Each sample was vortexed and centrifuged at 10,000×g for 15 min. The supernatant was separated and evaporated under nitrogen at room temperature, and the residue was reconstituted with ACN for high-pressure liquid chromatography (HPLC) analysis. A standard curve was prepared from drug-spiked plasma samples processed by the same method. The amounts of the codrug remaining or parent drugs released were plotted against time. These hydrolytic profiles were fit to previously developed mathematical models using nonlinear least-squares regression analysis ([…]®, Micromath Inc., Salt Lake City, Utah) as described by the equations below: […]

[4] = saturated solution in light mineral oil, human skin, 32° C., 48 h; codrug in 6-β-naltrexol equivalents
Protocol: Human skin harvested during abdominal reduction surgery was used for the diffusion studies. Skin sections were obtained by using a Padgett dermatome set to 250 μm; these sections were stored at −20° C. Stored skin samples were thawed to room temperature at the time of the experiment. A PermeGear flow-through (In-Line, Riegelsville, Pa., USA) diffusion cell system was used for the skin permeation studies. Skin surface temperature was maintained at 32° C. with a circulating water bath. Data was collected by using human skin from a single donor with three cells of 6-β-naltrexol and four cells CB-NTXOL-BUPOH. Because of normal human skin inter-subject permeation variability, the codrug was compared against 6-β-naltrexol permeation within each individual skin sample. These studies were repeated three times with skin from different human subject donors. The receiver solution was HEPES-buffered Hanks' balanced salt solution pH 7.4 set at a flow rate of 1.1 ml/h. […] A saturated solution of 6-β-naltrexol or CB-NTXOL-BUPOH in light mineral oil was applied to the skin in order to maintain a maximum and constant thermodynamic activity of the drug. Each cell was charged with 0.25 ml of the respective drug solution. […] All samples were immediately processed by solid phase extraction, evaporated under nitrogen, reconstituted, and analyzed for drug content by HPLC. The human tissue use was approved by the University of Kentucky Institutional Review Board.
Cumulative quantity of drug collected in the receiver compartment was plotted as a function of time. The flux value for a given experiment was obtained from the slope of the steady-state portion of the cumulative amount of drug permeated vs. time plot. Apparent permeability coefficient values were computed from Fick's First Law of diffusion:
Sink conditions were maintained in the receiver throughout the experiment, so ΔC was approximated by the drug concentration (solubility in this case) in the donor compartment.
The skin tissue was rinsed with filtered water and blotted with a paper towel. The tissue was tape-stripped twice to remove surface formulation. The area of skin with drug contact was cut out, chopped into tiny pieces, and placed in a pre-weighed vial. The vial was weighed to calculate the mass of the skin. Ten milliliters of acetonitrile was added to each vial, the vials vortexed, sonicated for 10 min, and placed in a shaker overnight. The following day, a 1 ml sample was obtained from the vials and placed in autosampler vials for analysis. […] Flux values and skin concentrations for each of the drugs were reported as mean±S.D and were statistically compared using a paired Student's t-test. Flux enhancement as well as drug disposition in the skin were considered significant at p<0.05.

[5] = Table 4; values obtained from Kiptoo et al.; cited from earlier work
[6] = humans; cited from earlier work
[7] = assay type: physicochemical
Protocol: Equal amounts of the each of the codrug were distributed into labeled test-tubes (20 nmol in each tube). Care was taken to ensure that the entire codrug was dissolved and the solution remained clear. Hydrolysis of the carbonate codrug (˜20 nmol) was conducted in isotonic phosphate buffer pH 7.4 at 32° C. in a water-bath with continuous stirring. […] Samples were collected at predetermined time intervals and stored in the freezer at −20° C. until analyzed. All experiments were conducted in triplicate. An aliquot part (250 μL) of hydrolysis solutions was mixed with 750 μL of acetonitrile, vortexed for 30s, and analyzed by HPLC for the presence of codrug and the two corresponding parent drugs, as well as for the intermediate hydrolysis product, 23. […] A Brownlee C18 reversed-phase Spheri-5 μm column (220×4.6 mm) connected to a C18 reversed-phase guard column (15×3.2 mm) was utilized and detection of solutes was carried out at 215 nm. The mobile phase consisted of a mixture of acetonitrile: 0.1% trifluoroacetic acid adjusted to pH 3.0 with triethylamine (50:50, v/v). The mobile phase flow rate was 1.5 mL/min and 100 μL of hydrolysis sample was injected onto the column.

Compound: CC1NC(C)(C)COC1(O)c1cccc(Cl)c1 (racemic) [Compound 4, (+/−)-2-(3-chlorophenyl)-3,5,5-trimethyl-2-morpholinol]
- solubility at 30 min (physchem; aqueous buffer, pH 7.4, 32° C., 30 min sonication, read-out: Hanks' buffer solubility): 3.85 mM (≈ 985 µg/mL)
- solubility at 48 h (physchem; oil or lipid, 32° C., 48 h equilibration (Table 3), read-out: Light mineral oil solubility): 4.04 mM (≈ 1030 µg/mL)
- In vitro flux ([1]; codrug as NTXOL equivalent flux): 25.89 ± 6.01 nmol cm^−2 h^−1
- In vitro lag time [1]: 7.83 ± 1.73 h
- Mean activity of solid @ T = 25° C., a2 ([2]; calculated from melting point and heat of fusion): 0.34
- Heat of fusion, ΔHf ([2]; ±s.d., n = 3): 2.58 ± 0.012 kcal/mol
- Guinea pig plasma half-life [3]: stable
- Flux from mineral oil [4]: 25.89 nmol cm^−2 h^−1
- Light mineral oil solubility [5]: 4.04 ± 0.04 mM

Compound: O=C1CC[C@@]2(O)[C@H]3Cc4ccc(O)c5c4[C@@]2(CCN3CC2CC2)[C@H]1O5 [Compound 1, Naltrexone]
- oral bioavailability [6]: 5-40%

Compound: Cc1c(-c2cccc(Cl)c2)oc(=O)n1C(C)(C)COC(=O)Oc1ccc2c3c1OC1C(=O)CCC4(O)C(C2)N(CC2CC2)CCC314 (stereo not drawn) [Compound 25]
- first-order rate constant k3 ([7]; generation of BUPOH from codrug 25, isotonic phosphate buffer pH 7.4): 0.0483 h⁻¹
- first-order rate constant k1 ([7]; hydrolysis at carbonate linker generating NTX (25) or NTXOL (26), isotonic phosphate buffer pH 7.4, 32° C.): 0.0179 h⁻¹
